The values that follow are results of earlier work, collected in US9861098B2, “Method for producing agrichemical-containing resin composition” (Nippon Soda Co., Ltd., priority 2008, dated 2018).

The structures appear in SMILES notation.

For one series the following is noted: 20° C.
In the case of `COP(=O)(NC(C)=O)SC` (stereo not drawn) [acephate], the water solubility was 790000 ppm.

`CNC(=O)Oc1cccc2c1OC(C)(C)O2` [bendiocarb]: the water solubility was 280 ppm.

Consider `CN/C(=N\[N+](=O)[O-])NCc1cnc(Cl)s1` [clothianidin], for which the water solubility is recorded as 327 ppm.

`CCSCc1ccccc1OC(=O)NC` [ethiofencarb]: the water solubility is listed as 1800 ppm.

Turning to `CNC(=O)ON=C(C)SC` [methomyl], the water solubility is 58000 ppm.

As for `CCN(Cc1ccc(Cl)nc1)/C(=C/[N+](=O)[O-])NC` [nitenpyram], the water solubility is 590000 ppm.

On to `N#C/N=C1\SCCN1Cc1ccc(Cl)nc1` [thiacloprid], for which the water solubility is 185 ppm.

For `CN1COCN(Cc2cnc(Cl)s2)/C1=N\[N+](=O)[O-]` [thiamethoxam], the water solubility is reported as 4100 ppm.

Staying with this series, now noted: 25° C.
In the case of `C/C(=N\C#N)N(C)Cc1ccc(Cl)nc1` [acetamiprid], the water solubility is recorded as 4250 ppm.
